Data as given in patent US20040023803A1, “Method for producing a solid herbicide formulation” (priority 2000, published 2004).

Assay: Storage stability test of solid formulations (14 days at 54° C., CIPAC MT 46; active ingredient and AMTT content by quantitative HPLC)
Assay type: physicochemical
Conditions: for Storage 14 days, 54° C. active ingredient content (rel.): relative to zero value; for Preparation Concentration % by weight: zero value before storage
Description: The solid formulations prepared by the process according to the invention are storage-stable. In accordance with a storage test laid down by the authorization authorities, they are stored for 14 days at 54° C. […] The active ingredient content and the AMTT content of the formulations were each determined by means of quantitative HPLC. […] The samples were then analyzed and compared with the comparative value at the beginning of the storage (zero value). The active ingredient content is shown in each case as relative quantity based on the zero value (as a percentage). The storage experiments were carried out following the method CIPAC MT 46. The shelf life of a product is estimated by short-term storage at elevated temperature.

[1] = Table 2, Example 1 formulation, pH of the suspension 5.1
[2] = Table 2, Example 1 formulation, pH of the suspension 6
[3] = Table 2, Example 1 formulation, pH of the suspension 7
[4] = Table 2, Example 1 formulation, pH of the suspension 8
[5] = Table 2, Example 1 formulation, pH of the suspension 9
[6] = Table 3 (headed Example 3), tritosulfuron + flucarbazone-sodium formulation, pH of the suspension 6.5
[7] = Table 3 (headed Example 3), tritosulfuron + flucarbazone-sodium formulation, pH of the suspension 7.0
[8] = Table 4 (headed Example 4), tritosulfuron + dicamba formulation, pH of the suspension 6
[9] = Table 4 (headed Example 4), tritosulfuron + dicamba formulation, pH of the suspension 7
[10] = Table 4 (headed Example 4), tritosulfuron + dicamba formulation, pH of the suspension 8
[11] = Table 4 (headed Example 4), tritosulfuron + dicamba formulation, pH of the suspension 9

Preparation Concentration % by weight [8] | Preparation Concentration % by weight [9] | Preparation Concentration % by weight [10] | Preparation Concentration % by weight [11] | Structure (SMILES) | Preparation Concentration % by weight [1] | Preparation Concentration % by weight [2] | Preparation Concentration % by weight [3] | Preparation Concentration % by weight [4] | Preparation Concentration % by weight [5] | Storage 14 days, 54° C. active ingredient content (rel.) [6] | Preparation Concentration % by weight [6] | Storage 14 days, 54° C. active ingredient content (rel.) [7] | Preparation Concentration % by weight [7] | Storage 14 days, 54° C. active ingredient content (rel.) [8] | Storage 14 days, 54° C. active ingredient content (rel.) [9] | Storage 14 days, 54° C. active ingredient content (rel.) [10] | Storage 14 days, 54° C. active ingredient content (rel.) [11] | other results
0.009 % by weight | 0.007 % by weight | 0.007 % by weight | 0.006 % by weight | COc1nc(N)nc(C(F)(F)F)n1 [AMTT, 2-amino-4-methoxy-6-trifluoromethyltriazine] | 0.03 % by weight | 0.03 % by weight | 0.033 % by weight | 0.026 % by weight | 0.035 % by weight |  | 0.025 % by weight |  | 0.019 % by weight |  |  |  |  | Storage 14 days, 54° C. % by weight (AMTT content) [1]: 0.249 % by weight; Storage 14 days, 54° C. % by weight (AMTT content) [2]: 0.250 % by weight; Storage 14 days, 54° C. % by weight (AMTT content) [3]: 0.178 % by weight; Storage 14 days, 54° C. % by weight (AMTT content) [4]: 0.056 % by weight; Storage 14 days, 54° C. % by weight (AMTT content) [5]: 0.234 % by weight; Storage 14 days, 54° C. % by weight (AMTT content) [6]: 0.164 % by weight; Storage 14 days, 54° C. % by weight (AMTT content) [7]: 0.065 % by weight; Storage 14 days, 54° C. % by weight (AMTT content) [8]: 0.470 % by weight; Storage 14 days, 54° C. % by weight (AMTT content) [9]: 0.011 % by weight; Storage 14 days, 54° C. % by weight (AMTT content) [10]: 0.007 % by weight; Storage 14 days, 54° C. % by weight (AMTT content) [11]: 0.007 % by weight
60.4 % by weight | 58.7 % by weight | 58.5 % by weight | 58.0 % by weight | COc1c(Cl)ccc(Cl)c1C(=O)O [dicamba] |  |  |  |  |  |  |  |  |  | 100 (rel.) % (rel.) | 100 (rel.) % (rel.) | 100 (rel.) % (rel.) | 101.9 (rel.) % (rel.) | 
 |  |  |  | COc1nn(C(=O)[N-]S(=O)(=O)c2ccccc2OC(F)(F)F)c(=O)n1C.[Na+] [flucarbazone-sodium] |  |  |  |  |  | 98.8 (rel.) % (rel.) | 24.1 % by weight | 99.5 (rel.) % (rel.) | 24.3 % by weight |  |  |  |  | 

Structure (SMILES) | Preparation Concentration % by weight [8] | Preparation Concentration % by weight [9] | Preparation Concentration % by weight [10] | Preparation Concentration % by weight [11] | Preparation Concentration % by weight [1] | Preparation Concentration % by weight [2] | Preparation Concentration % by weight [3] | Preparation Concentration % by weight [4] | Preparation Concentration % by weight [5] | Storage 14 days, 54° C. active ingredient content (rel.) [6] | Preparation Concentration % by weight [6] | Storage 14 days, 54° C. active ingredient content (rel.) [7] | Preparation Concentration % by weight [7] | Storage 14 days, 54° C. active ingredient content (rel.) [8] | Storage 14 days, 54° C. active ingredient content (rel.) [9] | Storage 14 days, 54° C. active ingredient content (rel.) [10] | Storage 14 days, 54° C. active ingredient content (rel.) [11] | other results
COc1nc(NC(=O)NS(=O)(=O)c2ccccc2C(F)(F)F)nc(C(F)(F)F)n1 [tritosulfuron, N[[[4-methoxy-6-(trifluoromethyl)-1,3,5-triazin-2-yl]amino]carbonyl]-2-(trifluoromethyl)benzenesulfonamide] | 11.9 % by weight | 11.9 % by weight | 11.3 % by weight | 10.4 % by weight | 74.2 % by weight | 72.3 % by weight | 71.7 % by weight | 67.5 % by weight | 72.4 % by weight | 98.8 (rel.) % (rel.) | 40.5 % by weight | 100 (rel.) % (rel.) | 41.1 % by weight | 91.3 (rel.) % (rel.) | 99.7 (rel.) % (rel.) | 98.8 (rel.) % (rel.) | 102.6 (rel.) % (rel.) | Storage 14 days, 54° C. active ingredient content (rel.) [1]: 99.3 (rel.) % (rel.); Storage 14 days, 54° C. active ingredient content (rel.) [2]: 99.9 (rel.) % (rel.); Storage 14 days, 54° C. active ingredient content (rel.) [3]: 100.8 (rel.) % (rel.); Storage 14 days, 54° C. active ingredient content (rel.) [4]: 100.5 (rel.) % (rel.); Storage 14 days, 54° C. active ingredient content (rel.) [5]: 97.7 (rel.) % (rel.)
